Measured values as given in US20250255845A1, “USE OF INTERLEUKIN (IL)-17A INHIBITOR IN PREPARATION OF MEDICAMENT FOR TREATING INFLAMMATORY DISEASE” (Xiangnan University, priority 2024, published 2025).

Assays:
Type in all cases: cell-based, mouse
IL-6 = assay: ELISA of LPS-induced IL-6 secretion in RAW264.7 cells
Method: (§1) RAW264.7 cell culture: mouse mononuclear macrophages (RAW264.7, ATCC) are cultured in a complete medium containing 10% fetal bovine serum (FBS), 1% double antibodies (penicillin and streptomycin), and 89% DMEM at 37° C. and 5% CO2. In this experiment, RAW264.7 cells from passages 3 to 8 are used for related test.
(§2) LPS (100 ng/ml) is added for stimulation, with or without Tan, and the cell supernatant is collected to detect the contents of NO, IL-23, IL-17A, TNF-α, and IL-6 in the cell supernatant. The cell lysate is collected and the protein expressions (STAT3, p-STAT3 (Ser727), and p-STAT3 (Tyr705)) are detected by Western blot. Total cell RNA is extracted and real-time fluorescence quantitative polymerase chain reaction (PCR) is conducted to detect the expression levels of IL-23, IL-17A, TNF-α, and IL-6 mRNA.
RAW264.7 cells in the logarithmic growth phase were inoculated into a 6-well plate and the cell density was adjusted to 5.0×10^5 cells/well. After culturing for 24 h, the cells were stably adhered to the plate. The original medium was removed and different concentrations (5, 10, 20, 40 μM) of Tan were added to allow pretreatment for 1 h. […] The OD450 nm value of the cell supernatant was detected according to the instructions of the TNF-α and IL-6 ELISA kits, and the content of pro-inflammatory factors (TNF-α and IL-6) in the cell supernatant was calculated.

RAW264.7 cells = assay: CCK-8 cell viability / cytotoxicity; details: 24 h
Method: RAW264.7 cell culture: mouse mononuclear macrophages (RAW264.7, ATCC) are cultured in a complete medium containing 10% fetal bovine serum (FBS), 1% double antibodies (penicillin and streptomycin), and 89% DMEM at 37° C. and 5% CO2. In this experiment, RAW264.7 cells from passages 3 to 8 are used for related test. RAW264.7 cells in the logarithmic growth phase were inoculated into a 96-well plate and the cell density was adjusted to 5×10^3 cells/well. After cultured for 24 h, the cells were stably adhered to the wall. The original complete medium was removed and different concentrations of Tan (5, 10, 20, 40, 80, 160, 320 μM) were added to allow treatment with or without LPS (100 ng/ml) for 24 h. Then, 10 μL of CCK-8 solution was added to each well and incubated at 37° C. for 1 h. The OD value of each sample at 450 nm was detected by a microplate reader, and the cell viability was calculated.

TNF-α mRNA = assay: Real-time fluorescence quantitative PCR, LPS-induced TNF-α mRNA in RAW264.7 cells
Method: as §1, §2
RAW264.7 cells were inoculated into 6-well plate and the cell density was adjusted to 5.0×10^6 cells/well. […] The fluorescence intensity of each sample was detected according to the instructions of the real-time fluorescence quantitative PCR kit and specific primers (Table 1) (cycle conditions: enzyme activation 95° C. for 3 min, 1 cycle; denaturation 95° C. for 15 s, annealing/extension 60° C. for 1 min, 40 cycles). The mRNA expression level of each group was normalized with the GAPDH expression level, and the relative expression of mRNA was calculated using the 2^−ΔΔCt method.

STAT3 = assay: Western blot of STAT3 in LPS-induced RAW264.7 cells; details: 5-40 μM, among treatment groups; P>0.05
Method: as §1, §2
RAW264.7 cells in the logarithmic growth phase were inoculated in 100 mm culture dishes, and the cell density was adjusted to 1.6×10^6 cells/dish. […] The supernatant was collected by centrifugation at 4° C., 12,000 rpm for 5 min, and the protein concentration was determined by BCA method. […] Enhanced Chemiluminescence (ECL) color development was used for detection, and protein band quantification was performed using Image J software.

In the case of `COc1ccc(-c2cc(=O)c3c(OC)c(OC)c(OC)c(OC)c3o2)cc1` [Tan, tangeretin], the “inhibitory effect on IL-6 secretion compared with positive control Clo” value (IL-6; 40 μM) is reported as “comparable to that of the positive control”, the “IL-6 level in the cell supernatant” value (IL-6; 5-40 μM, 24 h, vs LPS group, P<0.001, dose-dependent) is reported as “significantly decreased” and the “toxicity to RAW264.7 cells (cell viability)” value (RAW264.7 cells; 0-40 μM, P>0.05) is reported as “did not produce significant toxicity”. The “cell viability of RAW264.7 cells” value (RAW264.7 cells; Tan concentration higher than 40 μM, P<0.05) was “decreased”, the “inhibitory effect on TNF-α mRNA compared with positive control Clo” value (TNF-α mRNA; 40 μM) was “comparable to that of the positive control Clo” and the “relative expression level of TNF-α mRNA” value (TNF-α mRNA; 5-40 μM, 24 h, vs LPS, P<0.001, dose-dependent) was “significantly decreased”. For the same compound, the STAT3 protein expression (STAT3) was “no statistically significant change”.
